Measured values as given in ChEMBL document CHEMBL5257089, “Gamabufotalin Induces Apoptosis and Cytoprotective Autophagy through the mTOR Signaling Pathway in Hepatocellular Carcinoma” (J Nat Prod, 2023).
Active and inactive are the calls of the source. No cut-off for these calls is given here.

Key:
Huh-7 [1] = experiment: Induction of apoptosis in human Huh-7 cells assessed as decrease in bcl-2 level at 10 nM incubated for 48 hrs in presence of gamabufotalin by immunoblot analysis; format: functional, cell-based
Hep 3B2 [2] = experiment: Induction of autophagic flux in human Hep3B cells harbouring mCherry-egfp-LC3 assessed as reduction in number of yellow puncta ratio at 10 nM incubated for 15 mins in presence of gamabufotalin by laser scanning confocal microscopic analysis; format: functional, cell-based
Hep 3B2 [3] = experiment: Induction of apoptosis in human Hep3B cells assessed as decrease in bcl-2 level at 10 nM incubated for 48 hrs in presence of gamabufotalin by immunoblot analysis; format: functional, cell-based
Hep 3B2 [4] = experiment: Induction of apoptosis in human Hep3B cells assessed as late apoptotic cells at 10 nM incubated for 48 hrs by Annexin V-FITC/PI staining based flow cytometry method (reference value: 3.5%); format: functional
Huh-7 [5] = experiment: Induction of apoptosis in human Huh-7 cells assessed as early apoptotic cells at 10 nM incubated for 48 hrs by Annexin V-FITC/PI staining based flow cytometry method (reference value: 2.8%); format: functional
Hep 3B2 [6] = experiment: Induction of apoptosis in human Hep3B cells assessed as viable cells at 10 nM incubated for 48 hrs in presence of gamabufotalin by Annexin V-FITC/PI staining based flow cytometry method (reference value: 94.0%); format: functional; details: read-out: Activity
Hep 3B2 [7] = experiment: Induction of autophagic flux in human Hep3B cells harbouring mCherry-egfp-LC3 assessed as reduction in number of red puncta ratio at 10 nM incubated for 15 mins in presence of gamabufotalin by laser scanning confocal microscopic analysis; format: functional, cell-based
Hep 3B2 [8] = experiment: Induction of apoptosis in human Hep3B cells assessed as necrotic cells at 10 nM incubated for 48 hrs in presence of gamabufotalin by Annexin V-FITC/PI staining based flow cytometry method (reference value: 1.2%); format: functional
Huh-7 [9] = experiment: Induction of apoptosis in human Huh-7 cells assessed as early apoptotic cells at 10 nM incubated for 48 hrs in presence of gamabufotalin by Annexin V-FITC/PI staining based flow cytometry method (reference value: 2.8%); format: functional
Hep 3B2 [10] = experiment: Induction of autophagy in human Hep3B cells assessed as rescue of ULK1 phosphorylation level at upto 10 nM incubated for 48 hrs in presence of gamabufotalin by immunoblot method; format: functional, cell-based
Hep 3B2 [11] = experiment: Induction of apoptosis in human Hep3B cells assessed as upregulation of bax level […] incubated for 48 hrs in presence of 4,6-dimorpholino-N-(4-nitrophenyl)-1,3,5-triazin-2-amine by immunoblot analysis; format: functional, cell-based
Hep 3B2 [12] = experiment: Induction of apoptosis in human Hep3B cells assessed as necrotic cells at 20 nM incubated for 48 hrs by Annexin V-FITC/PI staining based flow cytometry method (reference value: 0.2%); format: functional
Hep 3B2 [13] = experiment: Induction of apoptosis in human Hep3B cells assessed as late apoptotic cells at 25 nM incubated for 48 hrs by Annexin V-FITC/PI staining based flow cytometry method (reference value: 2.6%); format: functional
Hep 3B2 [14] = experiment: Antitumor activity against human Hep3B cells xenografted in nude mouse model assessed as reduction in Ki-67 index at 5 mg/kg,ip administered every second day for 3 weeks by immunohistochemical analysis; format: functional, organism-based
Huh-7 [15] = experiment: Induction of apoptosis in human Huh-7 cells assessed as viable cells at 25 nM incubated for 48 hrs by Annexin V-FITC/PI staining based flow cytometry method (reference value: 90.0%); format: functional; details: read-out: Activity
Hep 3B2 [16] = experiment: Induction of autophagy in human Hep3B cells assessed as reduction in mTOR phosphorylation level incubated for 48 hrs by immunoblot method; format: functional, cell-based; details: dose 0-25 nM
Hep 3B2 [17] = experiment: Induction of autophagic flux in human Hep3B cells assessed as increase in intracellular vesicles at 25 nM incubated for 48 hrs by transmission electron microscopic analysis; format: functional, cell-based
Hep 3B2 [18] = experiment: Induction of autophagic flux in human Hep3B cells assessed as increase in LC3-II expression at upto 25 nM incubated for 48 hrs by Western blot analysis; format: functional, cell-based
Hep 3B2 [19] = experiment: Antitumor activity against human Hep3B cells xenografted in nude mouse model assessed as downregulation of m-TOR phosphorylation expression expression at 5 mg/kg,ip administered every second day for 3 weeks by Western blot analysis; format: functional, organism-based
Huh-7 [20] = experiment: Induction of apoptosis in human Huh-7 cells assessed as upregulation of cleaved PARP level […] incubated for 48 hrs in presence of 4,6-dimorpholino-N-(4-nitrophenyl)-1,3,5-triazin-2-amine by immunoblot analysis; format: functional, cell-based
Hep 3B2 [21] = experiment: Induction of apoptosis in human Hep3B cells assessed as necrotic cells at 25 nM measured after 48 hrs in presence of Z-VAD-FMK by annexin V-FITC/Propidium iodide staining based flow cytometric analysis (reference value: 0.3%); format: functional
Hep 3B2 [22] = experiment: Induction of apoptosis in human Hep3B cells assessed as early apoptotic cells at 25 nM incubated for 48 hrs by Annexin V-FITC/PI staining based flow cytometry method (reference value: 1.3%); format: functional
Hep 3B2 [23] = experiment: Induction of morphological changes in human Hep3B cells assessed as adherent cells at upto 25 nM incubated for 48 hrs by bright field imaging analysis; format: functional, cell-based
Hep 3B2 [24] = experiment: Inhibition of colony formation in human Hep3B cells at upto 25 uM incubated for 48 hrs by crystal violet staining based analysis; format: functional, cell-based
Huh-7 [25] = experiment: Induction of autophagy in human Huh-7 cells assessed as downregulation of LC3II/LC3I ratio at 25 uM incubated for 48 hrs in presence of 4,6-dimorpholino-N-(4-nitrophenyl)-1,3,5-triazin-2-amine by immunoblot analysis; format: functional, cell-based
[26] = Toxicity in mouse assessed as effect on serum BUN level at 5 mg/kg,ip administered every second day for 3 weeks by H and E staining based microscopic method; format: organism-based; details: in vivo, 504 h
Huh-7 [27] = experiment: Induction of autophagy in human Huh-7 cells harbouring mCherry-egfp-LC3 assessed as reduction in red puncta ratio at 25 nM incubated for 15 mins in presence of 4,6-dimorpholino-N-(4-nitrophenyl)-1,3,5-triazin-2-amine by laser scanning confocal microscopic analysis; format: functional, cell-based
Hep 3B2 [28] = experiment: Induction of autophagy in human Hep3B cells assessed as reduction in autophagic vesicles at 25 nM incubated for 48 hrs in presence of 4,6-dimorpholino-N-(4-nitrophenyl)-1,3,5-triazin-2-amine by transmission electron microscopy based analysis; format: functional, cell-based
Huh-7 [29] = experiment: Induction of apoptosis in human Huh-7 cells assessed as […] in Bax level at upto 25 nM incubated for 48 hrs by Western blot analysis; format: functional, cell-based
Huh-7 [30] = experiment: Induction of apoptosis in human Huh-7 cells assessed as early apoptotic cells at 20 nM incubated for 48 hrs by Annexin V-FITC/PI staining based flow cytometry method (reference value: 1.7%); format: functional
Huh-7 [31] = experiment: Induction of apoptosis in human Huh-7 cells assessed as late apoptotic cells at 25 nM incubated for 48 hrs by Annexin V-FITC/PI staining based flow cytometry method (reference value: 4.7%); format: functional
Huh-7 [32] = experiment: Induction of apoptosis in human Huh-7 cells assessed as necrotic cells at 25 nM incubated for 48 hrs in presence of chloroquine by Annexin V-FITC/PI staining based flow cytometry method (reference value: 1.0%); format: functional
Hep 3B2 [33] = experiment: Antitumor activity against human Hep3B cells xenografted in nude mouse model assessed as upregulation of LC3I expression at 5 mg/kg,ip administered every second day for 3 weeks by Western blot analysis; format: functional, organism-based

CCN(CC)CCCC(C)Nc1ccnc2cc(Cl)ccc12 (stereo not drawn) [CHLOROQUINE]
Activity (Huh-7 [1]): Active
Activity (Hep 3B2 [2]): Active
Activity (Hep 3B2 [3]): Active
Activity (Hep 3B2 [4]): 4.4%
Activity (Huh-7 [5]): 2.9%
viability at 0.01 µM (Hep 3B2 [6]): 63.9%
Activity (Hep 3B2 [7]): Active
Activity (Hep 3B2 [8]): 0.8%
Activity (Huh-7 [9]): 12.1%
Activity (Hep 3B2 [10]): Active

C[C@]12CC[C@H](O)C[C@H]1CC[C@@H]1[C@@H]2[C@H](O)C[C@]2(C)[C@@H](c3ccc(=O)oc3)CC[C@]12O [GAMABUFOTALIN]
Activity (Hep 3B2 [11]): Active
Activity (Hep 3B2 [12]): 0.3%
Activity (Hep 3B2 [13]): 5.2%
Activity (Hep 3B2 [14]): Active
viability at 0.025 µM (Huh-7 [15]): 81.5%
Activity (Hep 3B2 [16]): Dose-Dependent Effect
Activity (Hep 3B2 [17]): Active
Activity (Hep 3B2 [18]): Active
Activity (Hep 3B2 [19]): Active
Activity (Huh-7 [20]): Active
Activity (Hep 3B2 [21]): 0.3%
Activity (Hep 3B2 [22]): 14.3%
Activity (Hep 3B2 [23]): Active
inhibition (Hep 3B2 [24]): Active
Activity (Huh-7 [25]): Active
Activity [26]: Non-Toxic
Activity (Huh-7 [27]): Active
Activity (Hep 3B2 [28]): Active
Activity (Huh-7 [29]): Active
Activity (Huh-7 [30]): 5.5%
Activity (Huh-7 [31]): 10.2%
Activity (Huh-7 [32]): 3.4%
Activity (Hep 3B2 [33]): Active
